Measurements from patent US20100104624A1, “COMBINATION THERAPY USING PHOSPHODIESTERASE INHIBITORS” (priority 2008, published 2010).
Structures can show the parent of a compound that is named as a salt. Where two headings read alike, the source gives them in different places.

What was measured:
patient [1] = conditions: for headache side-effect of PDE-5 inhibitor: Example 4: patient, erectile dysfunction secondary to medications, hemicrania continua; for headache side-effect of Viagra: Viagra alone
Experimental: A patient with a history of migraines had difficulty sustaining an erection for long periods of time.
A patient presented with erectile dysfunction secondary to medications and hemicrania continua (a largely refractory condition consisting of a constant one-sided headache). […] They were then prescribed cafergot, a combination of ergotamine and caffeine, at a dose of 1 mg and instructed to take this with the Clalis.
A patient experienced intermittent erectile dysfunction due to stress.

patient [2] = assay: Patient case reports: alleviation of PDE-5 inhibitor headache by a co-administered agent; type: in vivo
[3] = Example 3: patient with history of migraines

CN1CC(=O)N2[C@H](c3ccc4c(c3)OCO4)c3[nH]c4ccccc4c3C[C@@H]2C1=O [Clalis, tadalafil]
headache side-effect of PDE-5 inhibitor (patient [1]): exacerbated their headaches

CC(C)Cc1ccc(C(C)C(=O)O)cc1 (centres unmarked) [Ibuprofen]
effect on Viagra headache (patient [2]; [3]): had no effect on the headache

CNS(=O)(=O)Cc1ccc2[nH]cc(CCN(C)C)c2c1 [Imitrex, sumatriptan succinate]
relief of Viagra headache (patient [2]; Example 5: Imitrex nasal spray at a dose of 25 mg): alleviated the headache to the point where they could enjoy the sex

N[C@@H](Cc1c[nH]c2ccccc12)C(=O)O [L-tryptophan]
prevention of Viagra headache (patient [2]; Example 6: L-tryptophan supplements the night before sexual intercourse): headache-free sex

CN[C@@H](C)[C@@H](O)c1ccccc1 [Sudafed, pseudoephedrine hydrochloride]
relief of Viagra headache (patient [2]; Example 1: one Sudafed tablet): only minimal relief | relief of Viagra headache (patient [2]; Example 1: two Sudafed tablets concomitantly with the Viagra): headache was still present but had abated enough to where they could enjoy the experience | prevention of Viagra headache (patient [2]; Example 2: one Sudafed tablet with the Viagra): did not develop a headache | relief of Viagra headache (patient [2]; Example 5: patient): did not relieve the headache

CCCc1nn(C)c2c(=O)[nH]c(-c3cc(S(=O)(=O)N4CCN(C)CC4)ccc3OCC)nc12 [Viagra, sildenafil citrate]
headache side-effect of Viagra (patient [1]; Example 1: patient, erectile dysfunction secondary to low testosterone): inability to use Viagra because of headaches | headache side-effect of Viagra (patient [1]; Example 2: patient without erectile dysfunction): bothered by headaches | headache side-effect of Viagra (patient [1]; [3]): intolerable headaches | headache side-effect of PDE-5 inhibitor (patient [1]): exacerbated their headaches | headache side-effect of Viagra (patient [1]; Example 5: patient, intermittent erectile dysfunction due to stress): could not tolerate the headache | headache side-effect of Viagra (patient [1]; Example 6: patient with psychologic erectile dysfunction): experiencing headaches | headache side-effect of Viagra (patient [1]; Example 7: patient): suffered from headaches

CC(=O)Nc1ccc(O)cc1 [acetaminophen]
effect on Viagra headache (patient [2]; [3]): had no effect on the headache

CC(C)(C)NCC(O)c1ccc(O)c(CO)c1 (centres unmarked) [albuterol]
relief of Viagra headache (patient [2]; Example 7: two puffs of albuterol inhaler after developing a headache from the Viagra): headache was alleviated

Cn1c(=O)c2c(ncn2C)n(C)c1=O [caffeine]
relief of Viagra headache (patient [2]; Example 1: caffeine administered prior to taking the Viagra): did not help | relief of Viagra headache (patient [2]; Example 5: patient): did not relieve the headache

CN(C)CCc1c[nH]c2ccc(Cn3cncn3)cc12 [rizatriptan]
effect on Viagra headache (patient [2]; Example 3: 5 mg tablet of rizatriptan with the Viagra): made the headache tolerable
